pIC50: −log10 of the molar value.
biological target: PDE10 (UniProt Q9Y233); test: PDE10 enzyme inhibition, IMAP TR-FRET assay (MPDE10A7 Enzyme Activity and Inhibition); assay type: biochemical; details: IC50 class against PDE10; read-out: IC50
Summary of the method: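 IMAP TR-FRET read-out of PDE10 hydrolysis of fluorescein-cAMP or -cGMP (60 min, room temperature), after a 30 min compound-enzyme preincubation. Enzyme source was PDE10A or tissue homogenate. Averaged IC50s are reported as five range classes.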

pIC50 | Compound
5.30 to 6.00 | Fc1cc(Oc2nccnc2Cl)ccc1Nc1nc2ccccc2s1 [Example 103, N-(4-(3-chloropyrazin-2-yloxy)-2-fluorophenyl)benzo[d]thiazol-2-amine]
> 7.60 | COc1ncccc1-c1nccnc1Oc1ccc(C(=O)c2nc3ccccc3n2CCF)cc1 [Example 134, (1-(2-fluoroethyl)-1H-benzo[d]imidazol-2-yl)(4-(3-(2-methoxypyridin-3-yl)pyrazin-2-yloxy)phenyl)methanone]
> 7.60 | N#CC1CCN(c2nccnc2Oc2ccc(Nc3nc4ccccc4s3)cc2)C1 (centres unmarked) [Example 84, 1-(3-(4-(benzo[d]thiazol-2-ylamino)phenoxy)pyrazin-2-yl)pyrrolidine-3-carbonitrile]
> 7.60 | CN1CCC(c2nccnc2Oc2ccc(Nc3nc4ccccc4s3)cc2)CC1 [Example 237, N-(4-(3-(1-methylpiperidin-4-yl)pyrazin-2-yloxy)phenyl)benzo [d]thiazol-2-amine]
5.30 to 6.00 | Fc1ccc2sc(Nc3ccc(Oc4nccnc4Cl)cc3)nc2c1 [Example 102, N-(4-(3-chloropyrazin-2-yloxy)-phenyl)-5-fluorobenzo[d]thiazol-2-amine]
> 7.60 | COc1cc(-c2nccnc2Oc2ccc(C(=O)c3nc4ccccc4[nH]3)cc2)ccn1 [Example 120, (1H-benzo[d]imidazol-2-yl)(4-(3-(2-methoxypyridin-4-yl)pyrazin-2-yloxy)phenyl)methanone]
6.60 to 7.00 | O=C(c1ccc(Oc2nccnc2OCC2CCOC2)cc1)c1nc2ccccc2[nH]1 (centres unmarked) [Example 171, (1H-benzo[d]imidazol-2-yl)(4-(3-((tetrahydrofuran-3-yl)methoxy)pyrazin-2-yloxy)phenyl)methanone]
> 7.60 | FC1(c2nccnc2Oc2ccc(Nc3nc4ccccc4s3)cc2)CCOCC1 [Example 204, N-(4-(3-(4-FLUOROTETRAHYDRO-2H-PYRAN-4-YL)PYRAZIN-2-YLOXY)PHENYL)BENZO[D]THIAZOL-2-AMINE]
> 7.60 | CC(F)C(=O)N1CCC(c2nccnc2Oc2ccc(C(=O)c3nc4ccccc4[nH]3)cc2)CC1 (centres unmarked) [Example 234, 1-(4-(3-(4-(1H-benzo[d]imidazole-2-carbonyl)phenoxy)pyrazin-2-yl)piperidin-1-yl)-2-fluoropropan-1-one]
7.00 to 7.60 | COC[C@H](C)NC(=O)c1nccnc1Oc1ccc(C(=O)c2nc3ccccc3[nH]2)cc1 [Example 256, (S)-3-(4-(1H-benzo[d]imidazole-2-carbonyl)phenoxy)-N-(1-methoxypropan-2-yl)pyrazine-2-carboxamide]

same assay, conditions: PDE10 enzyme inhibition; average IC50 data for each compound; read-out: Average IC50

pIC50 | Compound
8.23 | COc1ncccc1-c1nccnc1Oc1ccc(C(=O)c2nc3cc(F)ccc3[nH]2)cc1 [drawing 931]
7.73 | COCC1CCCN(c2nccnc2Oc2ccc(Nc3nc4ccccc4s3)cc2)C1 (centres unmarked) [drawing 736]
7.98 | c1cncc(-c2nccnc2Oc2ccc(Nc3nc4ccccc4s3)cc2)c1 [drawing 823]
10.34 | C[C@@H](O)C(=O)N1CCC(c2nccnc2Oc2ccc(Nc3nc4ccccc4s3)cc2)CC1 (stereo in doubt)
8.07 | OCCN1CCN(c2nccnc2Oc2ccc(Nc3nc4ccccc4s3)cc2)CC1 [drawing 720]
8.29 | O=C(c1ccc(Oc2nccnc2N2CC[C@H](O)C2)cc1)c1nc2ccccc2[nH]1
8.92 | O=C1CCCC(c2nccnc2Oc2ccc(Nc3nc4ccccc4s3)cc2)C1 (centres unmarked)
9.31 | O=C(c1ccc(Oc2nccnc2C2CCOCC2)cc1)c1nc2ccccc2[nH]1 [drawing 752]
8.87 | O=C(c1ccc(Oc2nccnc2[C@H]2CC[C@@H](O)CC2)cc1)c1nc2ccccc2[nH]1 [drawing 900]
8.54 | OC[C@@H]1CCN(c2nccnc2Oc2ccc(Nc3nc4ccccc4s3)cc2)C1 [drawing 732]
8.95 | CC(=O)N1CCC(c2nccnc2Oc2ccc(Nc3nc4ccccc4s3)cc2F)CC1 [drawing 984]
9.49 | O=C(c1ccc(Oc2nccnc2N2CCC(CO)CC2)cc1)c1nc2ccccc2[nH]1
8.72 | COc1cnccc1-c1nccnc1Oc1ccc(Nc2nc3ccccc3s2)cc1 [drawing 961]

From US20120277209A1, “PYRAZINE COMPOUNDS AS PHOSPHODIESTERASE 10 INHIBITORS” (Amgen Inc., priority 2009, published 2012)
